Assays:
[1] = tested on: phosphorylated STAT1 protein levels in B16-F10 cells; assay: Phospho-STAT1 (Tyr701) HTRF assay in IFN-gamma treated B16-F10 cells; assay type: cell-based; conditions: mouse IFN-gamma 100 ng/mL, 1 hour, read-out: pSTAT1 HTRF B16 EC50
Protocol: B16-F10 cells (ATCC, Manassas, VA, #CRL-6475) were cultured in DMEM growth medium (ThermoFisher Scientific, Waltham, MA, #11995-040) supplemented with 10% heat inactivated FBS (ThermoFisher Scientific, #16140-071) and 1% pen/strep (ThermoFisher Scientific, #15140-122). The cells were seeded into a white opaque 384-well tissue culture treated microplate (PerkinElmer, Waltham, MA, #6007688) at a density of 10,000 cells/well in 20 uL total volume and incubated overnight at 37 C and 5% CO2. 30 nL of compounds dissolved in DMSO were then transferred from a source plate into target wells with the Echo650 acoustic liquid handler (Beckman Coulter, Indianapolis, IN). Negative control wells received 30 nL of DMSO only (0.15% final concentration). Plates were returned to the incubator for 1 hour and then cells treated with either 5 uL of growth medium or 5 uL of growth medium containing 500 ng/mL of recombinant mouse IFN-gamma protein (R&D Systems, Minneapolis, MN, #485-MI/CF, 100 ng/mL final concentration) using the Assist automated pipetting platform (INTEGRA Biosciences, Hudson, NH). Plates were incubated at 37 C for 1 hour and assayed for phosphorylated STAT1 protein levels with the phospho-STAT1 (Tyr701) HTRF kit (Cisbio, Bedford, MA, #63ADK026PEH) according to manufacturer's instructions.

PTPN2 enzyme = target: T1, PTPN2 enzyme (Homo sapiens, UniProt P17706); assay: PhosphoSens PTPN2 biochemical assay; conditions: substrate AQT0264 20 μM, room temperature; read-out: PTPN2 BCHEM IC50
T1 sequence (P17706 1-415): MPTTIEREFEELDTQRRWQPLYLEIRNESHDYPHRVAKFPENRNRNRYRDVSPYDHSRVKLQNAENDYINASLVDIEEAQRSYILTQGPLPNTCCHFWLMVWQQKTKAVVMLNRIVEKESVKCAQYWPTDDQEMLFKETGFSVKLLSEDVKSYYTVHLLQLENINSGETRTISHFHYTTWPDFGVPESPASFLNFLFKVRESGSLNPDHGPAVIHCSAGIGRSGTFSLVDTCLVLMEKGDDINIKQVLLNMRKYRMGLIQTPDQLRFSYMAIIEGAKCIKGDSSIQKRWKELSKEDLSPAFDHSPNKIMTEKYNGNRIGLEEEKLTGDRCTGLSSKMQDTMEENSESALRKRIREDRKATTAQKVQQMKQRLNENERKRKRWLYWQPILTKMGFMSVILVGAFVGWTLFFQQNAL
Protocol: A PhosphoSens® kinase assay was performed as described by the vendor (AssayQuant Technologies, Marlborough, MA). Briefly, 1000×solutions of compounds were prepared in DMSO via serial dilution of the 10 mM DMSO stocks using 3-fold intervals in a 384-well reagent plate. 50 nL of the compound dilution series was then added to the corresponding wells of a 384-well assay plate. […] of 1.25×substrate (AQT0264) in 1× assay buffer (50 mM HEPES pH 7.5, 500 μM EGTA, […] MgCl2, 0.01% Brij-35, 1% Glycerol, 1 mM DTT, and 0.2 mg/mL BSA) was transferred to each well of the assay plate to achieve a final substrate concentration of 20 μM. Finally, […] of 5×PTPN2 enzyme stock was added to each well of the assay plate for a final enzyme concentration of […]. Reaction progress curves were collected by sampling fluorescence intensity at the excitation wavelength 360 nm (λex360) and emission wavelength 480 nm (λem480) every 71 seconds for one hour using a Synergy H4 plate reader (BioTek Instruments/Agilent Technologies, Winooski, VT) at room temperature.

B16-F10 cells = assay: Cell proliferation assay (CellTiter-Glo) in IFN-gamma treated B16-F10 cells; assay type: cell-based; conditions: 120 h, mouse IFN-gamma 10 ng/mL, read-out: PTPN2 Prolif 5d B16F10 EC50
Protocol: B16-F10 cells (ATCC, Manassas, VA, #CRL-6475) were cultured in DMEM growth medium (ThermoFisher Scientific, Waltham, MA, #11995-040) supplemented with 10% heat inactivated FBS (ThermoFisher Scientific, #16140-071) and 1% pen/strep (ThermoFisher Scientific, #15140-122). The cells were seeded into two white opaque 384-well tissue culture treated microplates (PerkinElmer, Waltham, MA, #6007688) at a density of 100 cells/well in 20 uL total volume and incubated overnight at 37 C and 5% CO2. 30 nL of compounds dissolved in DMSO were then transferred from a source plate into target wells with the Echo650 acoustic liquid handler (Beckman Coulter, Indianapolis, IN). Negative control wells received 30 nL of DMSO only (0.15% final concentration). Plates were returned to the incubator for 1 hour and then cells treated with either 5 uL of growth medium or 5 uL of growth medium containing 50 ng/mL of recombinant mouse IFN-gamma protein (R&D Systems, Minneapolis, MN, #485-MI/CF, 10 ng/mL final concentration) using the Assist automated pipetting platform (INTEGRA Biosciences, Hudson, NH). Plates were incubated at 37 C for 4 days and cell proliferation assayed with the CellTiter-Glo reagent (Promega, Madison, WI, #G7573, 25 uL per well). […] Off-target compound mediated cytotoxicity was identified by checking for growth inhibition in the absence of IFNg.

Structure (SMILES)	EC50 [1] [nM]	IC50 (PTPN2 enzyme) [nM]	EC50 (B16-F10 cells) [nM]
CC(C)Cc1ccc(-c2cc(O)c(N3CC(=O)NS3(=O)=O)c(F)c2)cc1 [EXAMPLE 15, 5-[2-fluoro-6-hydroxy-4-(4-isobutylphenyl)phenyl]-1,1-dioxo-1,2,5-thiadiazolidin-3-one]	≥ 15000	2480	≥ 15000
O=C1CN(c2c(O)cc(-c3ccc(CN4CCCC4)cc3)cc2F)S(=O)(=O)N1 [EXAMPLE 19, 5-[2-fluoro-6-hydroxy-4-[4-(pyrrolidin-1-ylmethyl)phenyl]phenyl]-1,1-dioxo-1,2,5-thiadiazolidin-3-one]	≥ 15000	483	≥ 15000
O=C1CN(c2c(O)cc(-c3cccc(-c4ccccc4)c3)cc2F)S(=O)(=O)N1 [EXAMPLE 11, 5-[2-fluoro-6-hydroxy-4-(3-phenylphenyl)phenyl]-1,1-dioxo-1,2,5-thiadiazolidin-3-one]	≥ 15000	1340	≥ 15000
CC(C)CCN1CCN(Cc2cc(O)c(N3CC(=O)NS3(=O)=O)c(F)c2)CC1 [EXAMPLE 32, 5-(2-fluoro-6-hydroxy-4-((4-isopentylpiperazin-1-yl)methyl)phenyl)-1,2,5-thiadiazolidin-3-one 1,1-dioxide]	≥ 15000	65	≥ 15000
O=C1CN(c2c(O)cc(-c3cc(-c4ccccc4)cs3)cc2F)S(=O)(=O)N1 [EXAMPLE 18, 5-[2-fluoro-6-hydroxy-4-(4-phenyl-2-thienyl)phenyl]-1,1-dioxo-1,2,5-thiadiazolidin-3-one]	≥ 15000	1190	≥ 15000
O=C1CN(c2c(O)cc(-c3cnc4ccccc4c3)cc2F)S(=O)(=O)N1 [EXAMPLE 24, 5-[2-fluoro-6-hydroxy-4-(3-quinolyl)phenyl]-1,1-dioxo-1,2,5-thiadiazolidin-3-one]	≥ 15000	190	≥ 15000
CC(C)(O)c1ccc(-c2cc(O)c(N3CC(=O)NS3(=O)=O)c(F)c2)cc1 [EXAMPLE 22, 5-[2-fluoro-6-hydroxy-4-[4-(1-hydroxy-1-methyl-ethyl)phenyl]phenyl]-1,1-dioxo-1,2,5-thiadiazolidin-3-one]	≥ 15000	179	≥ 15000
O=C1CN(c2c(O)cc(-c3ccc(-c4ccc(F)cc4)cc3)cc2F)S(=O)(=O)N1 [EXAMPLE 12, 5-[2-fluoro-4-[4-(4-fluorophenyl)phenyl]-6-hydroxy-phenyl]-1,1-dioxo-1,2,5-thiadiazolidin-3-one]	≥ 15000	1990	≥ 15000
O=C1CN(c2c(O)cc(-c3cccc(Oc4ccccc4)c3)cc2F)S(=O)(=O)N1 [EXAMPLE 14, 5-[2-fluoro-6-hydroxy-4-(3-phenoxyphenyl)phenyl]-1,1-dioxo-1,2,5-thiadiazolidin-3-one]	≥ 15000	2210	≥ 15000
CC(C)CCN1CCN(c2cc(O)c(N3CC(=O)NS3(=O)=O)c(F)c2)CC1 [EXAMPLE 83, 5-(2-fluoro-6-hydroxy-4-(4-isopentylpiperazin-1-yl)phenyl)-1,2,5-thiadiazolidin-3-one 1,1-dioxide]	≥ 15000	896	≥ 15000

Next, values leading:

EC50 [1] [nM]	IC50 (PTPN2 enzyme) [nM]	EC50 (B16-F10 cells) [nM]	Structure (SMILES)
≥ 15000	410	≥ 15000	CC(=O)N[C@H]1CC[C@H](NCc2cc(O)c(N3CC(=O)NS3(=O)=O)c(F)c2)CC1 [EXAMPLE 60, N-((1r,4r)-4-((4-(1,1-dioxido-4-oxo-1,2,5-thiadiazolidin-2-yl)-3-fluoro-5-hydroxybenzyl)amino)cyclohexyl)acetamide]
5480	682	≥ 15000	O=C1CN(c2c(O)cc(N3CCNCC3)cc2F)S(=O)(=O)N1 [EXAMPLE 85, 5-(2-fluoro-6-hydroxy-4-(piperazin-1-yl)phenyl)-1,2,5-thiadiazolidin-3-one 1,1-dioxide]
5200	130	6860	O=C1CN(c2c(O)cc(CN[C@H]3CCCNC3)cc2F)S(=O)(=O)N1 [EXAMPLE 65, (S)-5-(2-fluoro-6-hydroxy-4-((piperidin-3-ylamino)methyl)phenyl)-1,2,5-thiadiazolidin-3-one 1,1-dioxide]
≥ 15000	318	≥ 15000	CN(C)C1CCN(c2cc(O)c(N3CC(=O)NS3(=O)=O)c(F)c2)CC1 [EXAMPLE 87, 5-(4-(4-(dimethylamino)piperidin-1-yl)-2-fluoro-6-hydroxyphenyl)-1,2,5-thiadiazolidin-3-one 1,1-dioxide]
3200	102	2980	COC1CCN(Cc2cc(O)c(N3CC(=O)NS3(=O)=O)c(F)c2)CC1 [EXAMPLE 53, 5-[2-fluoro-6-hydroxy-4-[(4-methoxy-1-piperidyl)methyl]phenyl]-1,1-dioxo-1,2,5-thiadiazolidin-3-one]
4270	239	4350	CN(Cc1cc(O)c(N2CC(=O)NS2(=O)=O)c(F)c1)C1CCCCC1 [EXAMPLE 43, 5-(4-((cyclohexyl(methyl)amino)methyl)-2-fluoro-6-hydroxyphenyl)-1,2,5-thiadiazolidin-3-one 1,1-dioxide]
3220	37	2190	CS(=O)(=O)N1CCC[C@H](NCc2cc(O)c(N3CC(=O)NS3(=O)=O)c(F)c2)C1 [EXAMPLE 75, 5-[2-fluoro-6-hydroxy-4-[[[(3S)-1-methylsulfonyl-3-piperidyl]amino]methyl]phenyl]-1,1-dioxo-1,2,5-thiadiazolidin-3-one]
2570	60	4720	O=C1CN(c2c(O)cc(CN3CCC(F)CC3)cc2F)S(=O)(=O)N1 [EXAMPLE 42, 5-(2-fluoro-4-((4-fluoropiperidin-1-yl)methyl)-6-hydroxyphenyl)-1,2,5-thiadiazolidin-3-one 1,1-dioxide]
≥ 15000	12	≥ 15000	O=C(O)CC(=O)N1CCC[C@H](NCc2cc(O)c(N3CC(=O)NS3(=O)=O)c(F)c2)C1 [EXAMPLE 76, 3-[(3S)-3-[[3-fluoro-5-hydroxy-4-(1,1,4-trioxo-1,2,5-thiadiazolidin-2-yl)phenyl]methylamino]-1-piperidyl]-3-oxo-propanoic acid]
≥ 15000	226	≥ 15000	CN(C)CC1CCN(Cc2cc(O)c(N3CC(=O)NS3(=O)=O)c(F)c2)CC1 [EXAMPLE 56, 5-[4-[[4-[(dimethylamino)methyl]-1-piperidyl]methyl]-2-fluoro-6-hydroxy-phenyl]-1,1-dioxo-1,2,5-thiadiazolidin-3-one]

From patent US12162848B2, “Inhibitors of protein tyrosine phosphatase, compositions, and methods of use” (BRISTOL-MYERS SQUIBB COMPANY, priority 2022, dated 2024)
